Measured values: patent US9029337B2, “Modulation of factor 7 expression” (Isis Pharmaceuticals, Inc., priority 2007, dated 2015)
Strand notation (5' to 3'): a small letter for the sugar, then the base; units joined by * are phosphorothioate-linked, units joined directly phosphodiester-linked; [ ] holds rarer units or linkages, { } end groups; capitals alone tell only the bases. e = 2'-O-(2-methoxyethyl) (MOE); [5mC] = 5-methylcytosine; d = 2'-deoxy (DNA)

Tested on: human Factor 7 mRNA
Experiment: Antisense inhibition of human Factor 7 mRNA in HepB3 cells, 50 nM antisense oligonucleotide, lipofectin
Assay type: cell-based
Conditions: Table 1, 50 nM, lipofectin, approximately 24 hours, relative to untreated control cells
In short: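 4,000 cells/well; ~24 h exposure; RNA isolated; probe set RTS 2927; normalised to RIBOGREEN® total RNA; % inhibition vs untreated.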

Row | Substance | % Inhibition [%]
1 | 407624 (antisense eG*eA*eG*eA*e[5mC]*d[5mC]*dA*d[5mC]*d[5mC]*d[5mC]*dA*dG*dA*dT*dG*eG*eT*eG*eT*eT) [compound 407624] | 73
2 | 407955 (antisense eT*eG*eT*eG*eA*dA*dA*dT*dA*dT*d[5mC]*dA*dT*dT*dG*eA*e[5mC]*eA*eA*eG) [compound 407955] | 3
3 | 407920 (antisense eT*eG*eA*eG*e[5mC]*dG*d[5mC]*dA*dT*dG*dA*dG*d[5mC]*dT*dT*eT*eT*eG*e[5mC]*eA) [compound 407920] | 65
4 | 407890 (antisense e[5mC]*eA*eG*eG*eG*dA*dG*d[5mC]*d[5mC]*d[5mC]*dG*dG*d[5mC]*d[5mC]*dG*e[5mC]*eA*eG*e[5mC]*eT) [compound 407890] | 60
5 | 407937 (antisense eG*eA*eA*eG*eG*dG*dA*dG*dA*dA*dA*dT*dA*d[5mC]*dA*eT*eT*eT*eG*eG) [compound 407937] | 59
6 | 407646 (antisense eG*eG*eT*eG*eA*dT*dG*d[5mC]*dT*dT*d[5mC]*dT*dG*dA*dA*eT*eT*eG*eT*e[5mC]) [compound 407646] | 81
7 | 407954 (antisense e[5mC]*eA*eG*eG*eG*dA*dG*dA*dG*dA*dA*d[5mC]*dA*dT*d[5mC]*e[5mC]*eA*eA*eT*eT) [compound 407954] | 39
8 | 407918 (antisense e[5mC]*e[5mC]*eT*eG*eG*dT*dG*dT*dA*d[5mC]*dA*d[5mC]*d[5mC]*d[5mC]*d[5mC]*eA*eA*eA*eG*eT) [compound 407918] | 72
9 | 407620 (antisense eA*eG*eG*eA*e[5mC]*d[5mC]*dT*dG*d[5mC]*d[5mC]*dA*dT*dG*dG*dA*e[5mC]*eA*e[5mC]*eT*e[5mC]) [compound 407620] | 79
10 | 407609 (antisense eA*eG*eA*eA*eG*d[5mC]*dA*dG*dA*dT*dA*dT*dA*dG*dG*eA*e[5mC]*eT*eG*eG) [compound 407609] | 35
11 | 407897 (antisense eG*e[5mC]*eT*eT*eG*dG*dT*dG*d[5mC]*d[5mC]*d[5mC]*dG*dT*dG*dT*eG*eG*eT*e[5mC]*eA) [compound 407897] | 77
12 | 407611 (antisense eT*e[5mC]*eT*e[5mC]*eA*d[5mC]*dA*dG*dT*dT*d[5mC]*d[5mC]*dG*dG*d[5mC]*e[5mC]*e[5mC]*eT*e[5mC]*eG) [compound 407611] | 82
13 | 407898 (antisense e[5mC]*e[5mC]*eA*eG*e[5mC]*dA*dG*dA*dG*dA*dG*dT*dA*d[5mC]*d[5mC]*e[5mC]*e[5mC]*eT*e[5mC]*eG) [compound 407898] | 49
14 | 407622 (antisense eT*e[5mC]*eA*e[5mC]*e[5mC]*dA*dA*d[5mC]*dA*dA*d[5mC]*dA*dG*dG*dA*e[5mC]*e[5mC]*eT*eG*e[5mC]) [compound 407622] | 55

Same assay, conditions: Table 6, 50 nM, lipofectin, approximately 24 hours

Row | Substance | % Inhibition [%]
15 | 422263 (antisense eG*eG*dA*dA*dG*dA*dA*dG*dG*dG*dA*d[5mC]*dG*dG*dA*eA*eG*eG*eT*eG) [compound 422263] | 19
16 | 422128 (antisense eT*eT*eA*e[5mC]*eT*dG*dA*dG*d[5mC]*dG*d[5mC]*dG*dG*dA*dA*eG*eA*eA*eG*eG) [compound 422128] | 27
17 | 422186 (antisense eG*eG*eA*dA*dG*dA*dA*dG*dG*dG*dA*d[5mC]*dG*dG*dA*dA*dG*eG*eT*eG) [compound 422186] | 14

Same assay, conditions: Table 13 (microwalk), 50 nM, lipofectin, approximately 24 hours

Row | Substance | % Inhibition [%]
18 | 422230 (antisense e[5mC]*eA*dT*dG*d[5mC]*dA*dT*dG*dG*dT*dG*dA*dT*dG*d[5mC]*eT*eT*e[5mC]*eT*eG) [compound 422230] | 65

Same assay, conditions: gapmers targeted to nucleobases 4868 to 4899 of SEQ ID NO: 1, Table 8

Row | Substance | % Inhibition of human Factor 7 mRNA levels [%]
19 | 422291 (antisense eT*eT*d[5mC]*dT*dG*d[5mC]*dA*dG*dG*dA*dG*d[5mC]*dG*dG*d[5mC]*e[5mC]*eT*eA*eA*eA) [compound 422291] | 53
20 | 422138 (antisense eT*e[5mC]*eT*eG*e[5mC]*dA*dG*dG*dA*dG*d[5mC]*dG*dG*d[5mC]*d[5mC]*eT*eA*eA*eA*eT) [compound 422138] | 70

Same assay, conditions: lipofectin, 50 nM antisense oligonucleotide, approximately 24 hours, Factor 7 mRNA by real-time RT-PCR (RTS 2927), relative to untreated control

Row | Substance | % Inhibition [%]
21 | 416538 (antisense e[5mC]*eG*eT*eG*eG*dA*d[5mC]*dT*dG*dA*dT*d[5mC]*d[5mC]*dA*dA*eA*eG*eG*eA*e[5mC]) [compound 416538] | 46
22 | 416460 (antisense e[5mC]*eA*e[5mC]*e[5mC]*eA*d[5mC]*dA*dT*dG*dG*dT*d[5mC]*dA*dG*dT*eG*eA*eG*eG*eA) [compound 416460] | 49
23 | 416458 (antisense eG*eG*e[5mC]*eG*eG*dA*dG*d[5mC]*dA*dG*d[5mC]*dG*d[5mC]*dG*dA*eT*eG*eT*e[5mC]*eG) [compound 416458] | 29
24 | 416454 (antisense e[5mC]*eG*eT*eG*e[5mC]*dT*d[5mC]*dG*d[5mC]*d[5mC]*d[5mC]*dA*dG*d[5mC]*dA*e[5mC]*e[5mC]*eG*e[5mC]*eG) [compound 416454] | 56
25 | 416452 (antisense e[5mC]*e[5mC]*eA*eA*e[5mC]*dA*dA*d[5mC]*dA*dG*dG*dA*d[5mC]*d[5mC]*dT*eG*e[5mC]*e[5mC]*eA*eT) [compound 416452] | 19
26 | 416498 (antisense eG*eG*e[5mC]*e[5mC]*eA*dG*dT*dG*dG*d[5mC]*d[5mC]*dA*dT*dG*d[5mC]*eA*eT*e[5mC]*e[5mC]*e[5mC]) [compound 416498] | 5
27 | 416542 (antisense e[5mC]*eA*eG*eG*eG*dT*dG*d[5mC]*d[5mC]*d[5mC]*dA*dT*d[5mC]*d[5mC]*dT*eA*eG*eT*e[5mC]*eA) [compound 416542] | 56
28 | 416525 (antisense eT*eA*eT*eG*eA*dG*dT*d[5mC]*d[5mC]*dT*dT*d[5mC]*dT*dA*dG*eT*eG*eA*eA*eT) [compound 416525] | 5
29 | 416517 (antisense eG*eG*eG*eT*eG*d[5mC]*dA*dG*dT*dA*dG*d[5mC]*dA*dG*dA*eT*eG*e[5mC]*eA*eA) [compound 416517] | 23
30 | 416563 (antisense eG*e[5mC]*e[5mC]*eT*eG*d[5mC]*dA*dT*dT*dT*d[5mC]*d[5mC]*d[5mC]*dA*dT*eT*eG*eG*e[5mC]*eA) [compound 416563] | 0
31 | 416468 (antisense eT*eG*eG*eG*eA*dG*dA*d[5mC]*d[5mC]*d[5mC]*dT*dG*dG*dT*dG*eT*eA*e[5mC]*eA*e[5mC]) [compound 416468] | 46
32 | 416514 (antisense eG*eT*eA*eT*eT*dT*dT*d[5mC]*dT*dG*dA*dT*dG*dT*dG*eA*eA*eA*eA*e[5mC]) [compound 416514] | 8
33 | 416436 (antisense eA*e[5mC]*eT*eG*eG*dT*d[5mC]*d[5mC]*d[5mC]*d[5mC]*dA*dT*d[5mC]*dA*d[5mC]*eT*eG*eT*eA*eA) [compound 416436] | 27

Same assay, conditions: oligonucleotides targeted to nucleobases 11830 to 11869 of SEQ ID NO: 1 (Table 9)

Row | Substance | % Inhibition (human Factor 7 mRNA levels) [%]
34 | 422157 (antisense eT*eG*eG*dT*d[5mC]*dA*dG*dG*dG*d[5mC]*dT*dG*dG*dT*dT*dT*dT*eG*eG*eA) [compound 422157] | 49
35 | 422099 (antisense eA*eG*eG*eA*eG*dA*d[5mC]*dA*dA*dT*dG*dG*dT*d[5mC]*dA*eG*eG*eG*e[5mC]*eT) [compound 422099] | 48
36 | 422171 (antisense eG*eG*e[5mC]*dT*dG*dA*dG*dG*dA*dG*dA*d[5mC]*dA*dA*dT*dG*dG*eT*e[5mC]*eA) [compound 422171] | 61
37 | 422237 (antisense e[5mC]*eA*dA*dT*dG*dG*dT*d[5mC]*dA*dG*dG*dG*d[5mC]*dT*dG*eG*eT*eT*eT*eT) [compound 422237] | 50
38 | 422095 (antisense eA*e[5mC]*eA*eA*eT*dG*dG*dT*d[5mC]*dA*dG*dG*dG*d[5mC]*dT*eG*eG*eT*eT*eT) [compound 422095] | 60
39 | 422243 (antisense eA*eG*dG*dA*dG*dA*d[5mC]*dA*dA*dT*dG*dG*dT*d[5mC]*dA*eG*eG*eG*e[5mC]*eT) [compound 422243] | 62
40 | 422098 (antisense eG*eG*eA*eG*eA*d[5mC]*dA*dA*dT*dG*dG*dT*d[5mC]*dA*dG*eG*eG*e[5mC]*eT*eG) [compound 422098] | 53
41 | 422159 (antisense eA*eA*eT*dG*dG*dT*d[5mC]*dA*dG*dG*dG*d[5mC]*dT*dG*dG*dT*dT*eT*eT*eG) [compound 422159] | 45
42 | 422106 (antisense e[5mC]*eT*eG*eG*e[5mC]*dT*dG*dA*dG*dG*dA*dG*dA*d[5mC]*dA*eA*eT*eG*eG*eT) [compound 422106] | 32

Same assay, conditions: oligonucleotides targeted to nucleobases 13760 to 13789 of SEQ ID NO: 1 (Table 10)

Row | Substance | % Inhibition (human Factor 7 mRNA levels) [%]
43 | 422110 (antisense eA*e[5mC]*e[5mC]*e[5mC]*eG*d[5mC]*d[5mC]*dG*dG*d[5mC]*dT*d[5mC]*dT*dG*d[5mC]*eT*e[5mC]*eA*eT*e[5mC]) [compound 422110] | 53
44 | 422256 (antisense e[5mC]*eA*d[5mC]*d[5mC]*d[5mC]*dG*d[5mC]*d[5mC]*dG*dG*d[5mC]*dT*d[5mC]*dT*dG*e[5mC]*eT*e[5mC]*eA*eT) [compound 422256] | 29
45 | 422108 (antisense e[5mC]*e[5mC]*eG*e[5mC]*e[5mC]*dG*dG*d[5mC]*dT*d[5mC]*dT*dG*d[5mC]*dT*d[5mC]*eA*eT*e[5mC]*e[5mC]*e[5mC]) [compound 422108] | 69
46 | 422180 (antisense e[5mC]*e[5mC]*eA*d[5mC]*d[5mC]*d[5mC]*dG*d[5mC]*d[5mC]*dG*dG*d[5mC]*dT*d[5mC]*dT*dG*d[5mC]*eT*e[5mC]*eA) [compound 422180] | 54
